According to patent US11236086B2, “Substituted pyrrolopyridines as inhibitors of activin receptor-like kinase” (BLUEPRINT MEDICINES CORPORATION, priority 2017, dated 2022):

Experiments:
[1] = molecular target: T1, ALK2R206H (mutant ALK2, N-terminally tagged with GST) (Homo sapiens, UniProt Q04771, R206H); experiment: ALK binding assay (LANTHASCREEN TR-FRET competitive binding, displacement of Kinase Tracer 178); settings: read-out: Binding Assay (IC50 class)
T1 construct: purchased Carna Bioscience or ThermoFisher 09-148 or PV6232
T1 sequence (Q04771 21-509 R206H): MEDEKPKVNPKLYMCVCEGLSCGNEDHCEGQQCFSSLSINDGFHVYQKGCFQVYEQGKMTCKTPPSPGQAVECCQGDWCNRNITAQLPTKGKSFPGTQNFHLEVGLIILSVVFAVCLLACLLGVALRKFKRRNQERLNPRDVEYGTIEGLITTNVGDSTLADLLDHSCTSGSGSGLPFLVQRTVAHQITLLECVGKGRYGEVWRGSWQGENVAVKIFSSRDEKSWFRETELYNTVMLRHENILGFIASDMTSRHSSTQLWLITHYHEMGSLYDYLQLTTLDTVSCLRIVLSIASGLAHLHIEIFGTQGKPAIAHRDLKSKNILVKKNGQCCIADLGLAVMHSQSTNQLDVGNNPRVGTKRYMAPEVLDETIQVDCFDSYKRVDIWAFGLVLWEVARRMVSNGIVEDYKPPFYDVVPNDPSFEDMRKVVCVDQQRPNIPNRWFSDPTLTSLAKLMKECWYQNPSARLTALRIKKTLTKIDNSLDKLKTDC
How it was run: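 GST-tagged ALK2 R206H (2-5 nM) mixed with Eu-anti-GST antibody (4-10 nM), Kinase Tracer 178 (50 nM, near its Kd) and compound titration (1% DMSO) in Kinase Buffer A, 30 min at room temperature. Tracer displacement read as TR-FRET ratio, normalized to controls; IC50 from 4-parameter fit.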

human ALK2 R206H = molecular target: T2, human ALK2 R206H (Homo sapiens, UniProt Q04771, R206H); experiment: Cell-based ALK2-R206H cell activity assay (Smad1-Ser463/Ser465 phosphorylation by AlphaLISA in HEK293-ALK2-R206H cells); settings: phospho-Smad1 AlphaLISA, read-out: Cell Line (Cell Assay, IC50 class)
T2 construct: expressed in transfected cells; host or cells: HEK293 (ATCC CRL1573), lentivirus transduction, blasticidin selection
T2 sequence (Q04771 21-509 R206H): T1 sequence (Q04771 21-509 R206H)
Description: Example 11. Cell-Based ALK2-R206H Cell Activity Assay
A HEK293 (ATCC, Cat No. CRL1573) based stable cell line expressing human ALK2 R206H cDNA (synthesized by GeneScript, Piscataway, N.J.) and a FLAG tag at the C-terminus was generated by lentivirus transduction and subsequent blasticidin (Life Technologies, Cat No. A1113902) selection at 10 μg/ml for >2 wks. This cell line was named HEK293-ALK2-R206H.
B. Measurement of Smad1-Ser463/Ser465 Phosphorylation by AlphaLISA
HEK293-ALK2-R206H cells were grown, harvested, and then resuspended in serum-free, phenol red-free DMEM high glucose media (Life Technologies, Cat No. 31053). The media also contained 50 units/ml penicillin and 50 μg/ml streptomycin (Life Technologies, Cat. No. 15070-063). HEK293-ALK2-R206H cells were then plated in white opaque 384-wells microplates (2×10^4/well) (OptiPlate-384, PerkinElmer, Waltham, Mass., Cat No. 6007299) overnight (>16h) at 37° C. 5% CO2 for use in the assay.
Test compounds were first diluted to 4 mM or 0.4 mM and then serially diluted 3-fold into 10 different concentrations using DMSO. Each concentration of compound was further diluted 40-fold with phenol red-free DMEM (Life Technologies, Cat No. 31053). 2 μl of the diluted compounds were then dispensed into the HEK293-ALK2-R206H cell-containing wells of the microplates in duplicates. In this way, each compound was tested in 10 doses (3-fold serial dilution with the top concentration being 10 μM or 1 μM). Liquid handling was achieved using a Bravo Automated Liquid Handling Platform (Agilent Technologies). DMSO without compound was used as a negative control. The positive control was 1 μM LDN193189, a known bone morphogenetic protein (BMP inhibitor).
After 2-3 hours of incubation with test compound or control, the cells were lysed and signal was developed using ALPHASCREEN® SUREFIRE® SMAD1 (p-Ser463/465) cellular kinase assay kit (PerkinElmer, Cat No. TGRSM1S10K) following the manufacturer's recommended protocol. The microplates were read using Perkin Elmer ENVISION® plate reader (emission […]). The signal reflected the level of phospho-Ser/463/465-Smad1 in the lysate. The raw data were plotted using the DMSO negative and LDN193189 positive controls as the 0% and 100% inhibition, respectively. The 10-point dose response curve was used to calculate the IC50 values.
The results of this assay are shown in Table 3 in the column labeled “Cell Assay” wherein “A” represents an IC50 of less than or equal to 100 nM; “B” an IC50 of greater than 100 nM and less than or equal to 500 nM; “C” an IC50 of greater than 500 nM. Blank values in the table indicate that the particular compound was not tested in this assay.

| SMILES | IC50 [1] [nM] | IC50 (human ALK2 R206H) [nM] |
| --- | --- | --- |
| Cn1cc(-c2cc3c(N4CCN(C(=O)C5CCOCC5)CC4)ccnc3[nH]2)cn1 [Compound 144] | ≤ 10 | > 500 |
| O=C(OC1COC1)N1CCN(c2ccnc3[nH]c(-c4cscn4)cc23)CC1 [Compound 112] | ≤ 10 | ≤ 100 |
| CC(C)Oc1ccc(-c2cc3c(N4CCN(C(=O)C5CC5)CC4)ccnc3[nH]2)cc1 [Compound 194] | ≤ 10 | ≤ 100 |
| CCOC(=O)N1CCN(c2ccnc3[nH]c(-c4cccc(C)n4)cc23)CC1 [Compound 26] | ≤ 10 | 100 to 500 |
| Cc1cc(-c2cc3c(N4CCN(C(=O)OC5COC5)CC4)ccnc3[nH]2)cs1 [Compound 169] | ≤ 10 | ≤ 100 |
| CCOC(=O)N1CCN(c2ccnc3[nH]c(-c4ccccn4)cc23)CC1 [Compound 7] | ≤ 10 | ≤ 100 |
| Cc1nc(-c2cc3c(N4CCN(C(=O)OC5COC5)CC4)ccnc3[nH]2)co1 [Compound 102] | ≤ 10 | 100 to 500 |
| Cc1cc(-c2cc3c(N4CCN(C(=O)OC5COC5)CC4)ccnc3[nH]2)on1 [Compound 104] | ≤ 10 | 100 to 500 |
| CCOC(=O)N1CCN(c2ccnc3[nH]c(-c4cn(C)nn4)cc23)CC1 [Compound 13] | ≤ 10 | 100 to 500 |
| Cc1nc(-c2cc3c(N4CCN(C(=O)[C@H]5C[C@H](C#N)C5)CC4)ccnc3[nH]2)cs1 [Compound 205, (1r,3r)-3-(4-(2-(2-methylthiazol-4-yl)-1H-pyrrolo[2,3-b]pyridin-4-yl)piperazine-1-carbonyl)cyclobutanecarbonitrile] | ≤ 10 | ≤ 100 |
| CCOC(=O)N1CCN(c2ccnc3[nH]c(-c4cnn(C)c4C(F)F)cc23)CC1 [Compound 191] | ≤ 10 | 100 to 500 |
| CCOC(=O)N1CCN(c2ccnc3[nH]c(-c4ccc(C)cn4)cc23)CC1 [Compound 24] | ≤ 10 | 100 to 500 |
| CC(C)OC(=O)N1CCN(c2ccnc3[nH]c(-c4cnn(C)c4)cc23)CC1 [Compound 41] | ≤ 10 | 100 to 500 |
| CCOC(=O)N1CCN(c2ccnc3[nH]c(-c4ccn(C)n4)cc23)CC1 [Compound 12] | ≤ 10 | 100 to 500 |
| CCOC(=O)N1CCN(c2ccnc3[nH]c(-c4cnn(C)c4)c(Cl)c23)CC1 [Compound 121] | ≤ 10 | ≤ 100 |
| Cn1cc(-c2cc3c(N4CCN(C(=O)C5CC(F)C5)CC4)ccnc3[nH]2)cn1 (centres unmarked) [Compound 93] | ≤ 10 | ≤ 100 |
| Cc1nc(-c2cc3c(N4CCN(C(=O)OC5CCC5)CC4)ccnc3[nH]2)cs1 [Compound 159] | ≤ 10 | ≤ 100 |
| Cn1cc(-c2cc3c(N4CCN(C(=O)OC5COC5)CC4)ccnc3[nH]2)c(F)n1 [Compound 179] | ≤ 10 | 100 to 500 |
| Cn1cc(-c2cc3c(N4CCN(C(=O)[C@@H]5C[C@H]5F)CC4)ccnc3[nH]2)cn1 [Compound 37] | ≤ 10 | ≤ 100 |
| Cn1cc(-c2cc3c(N4CCN(C(=O)OC5COC5)CC4)ccnc3[nH]2)cc1C#N [Compound 203] | ≤ 10 | ≤ 100 |
| NC1(c2ccc(-c3cc4c(N5CCN(C(=O)C6CC6)CC5)ccnc4[nH]3)cc2)CC1 [Compound 183] | ≤ 10 | ≤ 100 |
| CCOC(=O)N1CCN(c2ccnc3[nH]c(-c4ncc(C(C)C)s4)cc23)CC1 [Compound 177] | ≤ 10 | ≤ 100 |
| Cc1nc(-c2cc3c(N4CCN(C(=O)O[C@H]5C[C@H](F)C5)CC4)ccnc3[nH]2)cn1C [Compound 244] | ≤ 10 | ≤ 100 |

Second part, the compound after the results:

| IC50 [1] [nM] | IC50 (human ALK2 R206H) [nM] | SMILES |
| --- | --- | --- |
| ≤ 10 | ≤ 100 | CC(C)N1CCC[C@H](c2ccc(-c3cc4c(N5CCN(C(=O)OC6COC6)CC5)ccnc4[nH]3)cc2)C1 [Compound 468] |
| ≤ 10 | ≤ 100 | Cn1cc(-c2[nH]c3nccc(N4CCN(C(=O)[C@H]5CC[C@H](C#N)CC5)CC4)c3c2C#N)cn1 [Compound 374] |
| ≤ 10 | ≤ 100 | CCc1cnc(-c2cc3c(N4CCN(C(=O)OC5COC5)CC4)ccnc3[nH]2)s1 [Compound 249] |
| ≤ 10 | 100 to 500 | Cn1cc(-c2cc3c(N4CCN(C(=O)OCCC(F)(F)F)CC4)ccnc3[nH]2)cn1 [Compound 292] |
| ≤ 10 | ≤ 100 | O=C(C1CC1)N1CCN(c2ccnc3[nH]c(-c4ccc(C5(O)CCOCC5)cc4)cc23)CC1 [Compound 386] |
| ≤ 10 | ≤ 100 | Cn1cnc(-c2[nH]c3nccc(N4CCN(C(=O)O[C@H]5C[C@H](F)C5)CC4)c3c2C#N)c1 [Compound 297] |
| ≤ 10 | ≤ 100 | CCOC(=O)N1CCN(c2ccnc3[nH]c(-c4ccc(C5(OC)CCOCC5)cc4C#N)cc23)CC1 [Compound 455] |
| ≤ 10 | ≤ 100 | Cc1nc(-c2[nH]c3nccc(N4CCN(C(=O)O[C@H]5C[C@H](F)C5)CC4)c3c2C#N)cs1 [Compound 365] |
| ≤ 10 | ≤ 100 | Cn1cc(-c2[nH]c3nccc(N4CCN(C(=O)OC5CS(=O)(=O)C5)CC4)c3c2C#N)cn1 [Compound 414] |
| ≤ 10 | ≤ 100 | CC(C)n1cc(-c2cc3c(N4CCN(C(=O)[C@H]5CC[C@H](C#N)CC5)CC4)ccnc3[nH]2)cn1 [Compound 381] |
| ≤ 10 | ≤ 100 | Cn1cc(-c2[nH]c3nccc(N4CCN(C(=O)OC5CCC5)CC4)c3c2Cl)cn1 [Compound 255] |
| ≤ 10 | ≤ 100 | Cn1cc(-c2[nH]c3nccc(N4CCN(C(=O)[C@H]5C[C@H](C#N)C5)CC4)c3c2Cl)cn1 [Compound 299] |
| ≤ 10 | ≤ 100 | CCS(=O)(=O)c1ccc(-c2cc3c(N4CCN(C(=O)C5CC5)CC4)ccnc3[nH]2)cc1 [Compound 362] |
| ≤ 10 | ≤ 100 | O=C(C1CC1)N1CCN(c2ccnc3[nH]c(-c4ccc(OCCN5CCCC5)cc4)cc23)CC1 [Compound 421] |
| ≤ 10 | ≤ 100 | Cn1cnc(-c2cc3c(N4CCN(C(=O)O[C@H]5CCC5(F)F)CC4)ccnc3[nH]2)c1 [Compound 265] |
| ≤ 10 | ≤ 100 | O=C(OC1COC1)N1CCN(c2ccnc3[nH]c(-c4cn([C@H]5CCOC5)cn4)cc23)CC1 [Compound 359] |
| ≤ 10 | ≤ 100 | Cn1cc(-c2cc3c(N4CCN(C(=O)OC5CCC5(F)F)CC4)ccnc3[nH]2)cn1 (centres unmarked) [Compound 262] |
| ≤ 10 | ≤ 100 | Cn1cc(-c2cc3c(N4CCN(C(=O)[C@H]5CC[C@H](C#N)CC5)CC4)ccnc3[nH]2)cn1 [Compound 278] |
| ≤ 10 | ≤ 100 | N#CC1(c2ccc(-c3cc4c(N5CCN(C(=O)C6CC6)CC5)ccnc4[nH]3)c(F)c2)CC1 [Compound 322] |
| ≤ 10 | ≤ 100 | Cn1cc(-c2[nH]c3nccc(N4CCN(C(=O)[C@H]5CC[C@H](C#N)CC5)CC4)c3c2Cl)cn1 [Compound 397] |
